{
  "source": "patent US9944721B2",
  "about": "“Polysialic acid and use for treatment of neurodegenerative and neuroinflammatory diseases” (RHEINISCHE FRIEDRICH-WILHELMS UNIVERSITÄT BONN, priority 2013, dated 2018)",
  "key": {"[1]": {"tested_on": "human microglial cells stimulated with fibrillary amyloid-β1-42", "test": "Amyloid-β1-42 induced superoxide release of human microglia (DHE)", "type": "cell-based", "conditions": "Aβ 10 μM", "method": "The human microglial cell line was treated with human Alzheimer's disease associated fibrillary amyloid-beta peptide (Aβ) to mimic inflammatory signalling of Alzheimer's disease brain tissue. To obtain fibrillary components of Aβ, the synthetic amyloid-beta peptide (amyloid-beta 1-42, Bachem/Brucker, 10 μM) was preincubated at 37° C. for at least three days. The human microglial cells were treated with the different concentrations of 0.15 μM, 0.5 μM, or 1.5 μM of low molecular weight polysialic acid (PSA-20) for 60 minutes followed by incubation for 15 minutes with fibrillary Aβ. Then, 30 μM dihydroethidium (DHE) was added and incubated at 37° C. for 15 minutes for measurement of superoxide anion radical production. Cells were fixed with 4% paraformaldehyde plus 0.25% glutaraldehyde and analyzed by confocal microscopy. For the quantification of DHE staining intensity six pictures of each experiment were obtained and analyzed by ImageJ software (NIH). The background was subtracted and the mean values of the staining intensities were compared. Cells were fixed and the intensity of DHE was quantified by confocal microscopy.\nTo confirm the specificity of the DHE measurement, the determination of the effect of PSA-20 on superoxide production in human microglial cells was repeated. As a control the radical scavenger Trolox, a water-soluble vitamin E analogue, was added to the system. Furthermore, as additional control superoxide dismutase-1 (SOD1) was added into the medium. Superoxide should no longer be detectable by the DHE dye after successful transformation of superoxide by SOD1.\nHuman microglial cells were cultured alone and production of reactive oxygen species was analyzed after treatment with the Alzheimer's disease plaques associated fibrillary amyloid-β1-42. To measure the relative production of superoxide by the microglial cells, cells were plated in 4-chamber culture dishes. After 24 hours human microglial cells were treated with 1.5 μM of low molecular weight polysialic acid (PSA-20) for 60 minutes followed by incubation for 15 minutes with 10 μM fibrillary amyloid-β1-42. Control dishes were treated with either 1.5 μM PSA-20 and 40 μM Trolox or 1.5 μM PSA-20 and 20 μg/ml superoxide dismutase-1 (SOD1, Serva). Then, cells were washed 2-times with Krebs-HEPES-buffer and afterwards incubated for 15 minutes with 30 μM DHE solution (diluted in Krebs-HEPES-buffer). Finally cells were washed 2-times with Krebs-HEPES-buffer and fixed for 15 minutes with 0.25% glutaraldehyde and 4% PFA. In total, six images were randomly collected per experimental group by confocal laser scanning microscopy (Fluoview 1000, Olympus). All cells of the collected images were analyzed by Image J software (NIH)."}, "[2]": {"tested_on": "humanized Siglec-11 transgenic mice", "test": "Septic encephalopathy model: TNF-alpha gene transcripts after repeated systemic LPS", "type": "in vivo", "conditions": "4x LPS plus 4x PSA-20 1 μg per gram body weight i.p., 24 hours after last application", "method": "Humanized Siglec-11 transgenic mice (Wang Y, 2009, dissertation, University Bonn, uniform resource name: urn:nbn:de:hbz:5N-18095) expressing human Siglec-11 under the Iba1-promoter in microglia and wildtype littermate control mice were used in this experiment. For gene transcript analysis, RNA was isolated from brains with Trizol followed with the RNeasy Mini Kit (Qiagen). Reverse transcription of RNA was performed with SuperScript III reverse transcriptase (Invitrogen) and hexamer random primers (Roche Molecular Biochemicals). Quantitative RT-PCR with specific oligonucleotides was performed with SYBR Green PCR Master Mix (Applied Biosystems) using the ABI 5700 Sequence Detection System (Perkin Elmer) and amplification protocol for the ABI 5700 Sequence Detection System. […] Results were analyzed with the ABI 5700 Sequence Detection System v.1.3 after establishing the reaction efficiency for each primer pair. Quantification using the delta-CT method was carried out.\nMice were either treated intraperitoneally with 4× lipopolysaccharide (LPS from Salmonella abortus equi S-form (ENZO Life Science), 1 μg per gram body weight) or 4×LPS (1 μg per gram body weight) plus 4×PSA-20 (1 μg per gram body weight) or 4×PBS. […] Mice were analyzed 24 hours after the last application.\nGene transcripts for TNF-alpha were determined from the total brain tissue by qRT-PCR at 24 hours after the last application."}, "[3]": {"tested_on": "human microglia stimulated with neural debris or Drusen-like debris", "test": "Debris-induced superoxide release of human microglia (macular degeneration culture model, DHE)", "type": "cell-based", "method": "Second, effect of PSA-20 on microglia stimulated with neural cellular debris was analyzed. Drusen containing cellular debris is one characteristics of senile macular degeneration. To study the effect of degenerated material on the retinal microglia, we prepared neural debris by hypotonic and mechanic lysis of human neurons derived from induced pluripotent stem cells. Then, we treated the human microglial line derived from induced pluripotent stem cells and analyzed the effect of PSA-20. Superoxide release was determined by the fluorescent dye DHE. […] Cells were fixed with 4% paraformaldehyde plus 0.25% glutaraldehyde and analyzed by confocal microscopy. For the quantification of DHE staining intensity six pictures of each experiment were obtained and analyzed by ImageJ software (NIH). […] Cells were fixed and the intensity of DHE was quantified by confocal microscopy. […]\nTo obtain Drusen-like debris from the retina, human retinal pigment epithelium ARPE-19 cells were treated with 80 nM okadaic acid for 24 hours at 37° C. and 5% CO2, centrifuged, washed three times with PBS and the pellet was frozen at −20° C. […] Cells were fixed and the release of superoxide was quantified by the intensity of the DHE dye. […]"}},
  "data": [
    {"substance": "poly-(α(2→8)Neu5Ac)n [PSA-20]", "values": [
      {"measurement": "Aβ induced superoxide release", "setting": "[1]; 1.5 μM, 60 minutes pre-treatment, FIG. 4A", "value": "reduced"},
      {"measurement": "amyloid-β1-42 induced stimulation of the superoxide production", "setting": "[1]; repeat, FIG. 4B, PSA-20 1.5 μM, Trolox 40 μM, SOD1 20 μg/ml", "value": "prevented"},
      {"measurement": "gene transcripts for TNF-alpha in the spleen", "setting": "[2]", "value": "No change"},
      {"measurement": "gene transcription levels of TNF-alpha in the brain tissue", "setting": "[2]; Siglec-11 transgenic mice", "value": "reduced gene transcription levels"},
      {"measurement": "relative superoxide production", "setting": "[3]; Drusen-like debris from ARPE-19 cells, 10 μg/ml PSA-20, 30 minutes, without PSA-20 1.38+/−0.02, FIG. 7C", "value": "0.92+/−0.22"},
      {"measurement": "cellular neural debris induced superoxide production", "setting": "[3]; neural debris from human neurons, FIG. 7B", "value": "prevented"}
    ]}
  ]
}
